From ChEMBL document CHEMBL2331317, “Synthesis and structure-activity relationships for 1-(4-(piperidin-1-ylsulfonyl)phenyl)pyrrolidin-2-ones as novel non-carboxylate inhibitors of the aldo-keto reductase enzyme AKR1C3” (Eur J Med Chem, 2013)
Where a chain is given by its changes, count along the chain named. pIC50: −log10 of the molar value. Active and inactive are the calls of the source. No cut-off for these calls is given here.

Legend:
[1] = target: T1, Aldo-keto reductase family 1 member C4 (Homo sapiens, UniProt P17516); assay: Inhibition of AKR1C4 (unknown origin)
T1 sequence (P17516 whole entry): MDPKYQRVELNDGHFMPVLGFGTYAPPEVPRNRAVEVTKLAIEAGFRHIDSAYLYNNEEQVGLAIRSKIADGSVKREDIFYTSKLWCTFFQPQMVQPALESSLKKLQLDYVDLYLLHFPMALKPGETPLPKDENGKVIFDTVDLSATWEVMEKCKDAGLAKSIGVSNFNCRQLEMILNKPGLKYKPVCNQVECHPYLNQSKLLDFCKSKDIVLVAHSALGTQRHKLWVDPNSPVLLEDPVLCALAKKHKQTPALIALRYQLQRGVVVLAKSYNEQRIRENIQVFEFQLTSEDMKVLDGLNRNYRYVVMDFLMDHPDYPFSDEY

[2] = target: T2, Aldo-keto reductase family 1 member C1 (Homo sapiens, UniProt Q04828); assay: Inhibition of AKR1C1 (unknown origin)
T2 sequence (Q04828 whole entry): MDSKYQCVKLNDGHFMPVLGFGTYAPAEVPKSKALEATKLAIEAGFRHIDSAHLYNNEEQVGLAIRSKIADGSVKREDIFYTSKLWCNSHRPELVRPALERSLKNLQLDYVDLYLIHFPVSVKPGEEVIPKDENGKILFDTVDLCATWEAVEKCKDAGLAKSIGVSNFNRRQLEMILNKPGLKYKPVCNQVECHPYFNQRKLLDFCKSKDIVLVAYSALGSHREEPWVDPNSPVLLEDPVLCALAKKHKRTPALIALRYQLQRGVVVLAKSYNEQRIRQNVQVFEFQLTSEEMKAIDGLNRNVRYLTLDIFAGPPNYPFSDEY

[3] = target: T3, Prostaglandin G/H synthase 1 (Homo sapiens, UniProt P23219); assay: Inhibition of COX1 (unknown origin)
T3 sequence (P23219 whole entry): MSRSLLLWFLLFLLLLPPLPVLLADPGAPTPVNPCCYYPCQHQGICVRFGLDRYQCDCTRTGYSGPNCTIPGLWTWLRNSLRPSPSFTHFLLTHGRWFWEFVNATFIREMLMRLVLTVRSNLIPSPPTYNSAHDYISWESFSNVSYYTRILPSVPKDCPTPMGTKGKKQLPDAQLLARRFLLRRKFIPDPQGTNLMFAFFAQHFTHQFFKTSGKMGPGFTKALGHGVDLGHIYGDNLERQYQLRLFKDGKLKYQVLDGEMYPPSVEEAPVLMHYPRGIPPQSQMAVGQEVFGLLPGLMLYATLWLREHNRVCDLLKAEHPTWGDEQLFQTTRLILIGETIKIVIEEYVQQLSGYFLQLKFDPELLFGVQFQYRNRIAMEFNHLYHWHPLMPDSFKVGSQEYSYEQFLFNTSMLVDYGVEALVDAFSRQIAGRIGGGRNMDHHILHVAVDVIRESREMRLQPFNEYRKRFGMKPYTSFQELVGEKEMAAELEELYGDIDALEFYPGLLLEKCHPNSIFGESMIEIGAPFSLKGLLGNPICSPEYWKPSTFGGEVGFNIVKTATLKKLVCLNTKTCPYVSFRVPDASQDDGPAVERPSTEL

[4] = target: T4, Prostaglandin G/H synthase 2 (Homo sapiens, UniProt P35354); assay: Inhibition of COX2 (unknown origin)
T4 sequence (P35354 whole entry): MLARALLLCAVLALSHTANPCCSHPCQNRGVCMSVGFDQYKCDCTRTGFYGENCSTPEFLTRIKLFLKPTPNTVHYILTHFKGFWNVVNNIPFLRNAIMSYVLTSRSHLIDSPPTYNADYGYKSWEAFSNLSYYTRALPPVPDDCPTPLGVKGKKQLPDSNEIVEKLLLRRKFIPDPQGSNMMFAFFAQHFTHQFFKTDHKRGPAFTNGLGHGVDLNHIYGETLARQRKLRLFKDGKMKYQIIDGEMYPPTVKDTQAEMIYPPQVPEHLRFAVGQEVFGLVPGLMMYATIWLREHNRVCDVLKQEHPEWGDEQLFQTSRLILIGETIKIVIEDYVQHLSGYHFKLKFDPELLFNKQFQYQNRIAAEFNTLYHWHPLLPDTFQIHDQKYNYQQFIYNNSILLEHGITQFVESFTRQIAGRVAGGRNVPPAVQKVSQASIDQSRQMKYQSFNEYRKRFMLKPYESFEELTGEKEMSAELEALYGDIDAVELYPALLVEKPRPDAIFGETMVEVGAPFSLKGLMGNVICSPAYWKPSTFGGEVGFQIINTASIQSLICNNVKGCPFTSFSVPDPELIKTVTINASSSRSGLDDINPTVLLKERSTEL

[5] = target: T5, Aldo-keto reductase family 1 member C2 (Homo sapiens, UniProt P52895); assay: Inhibition of His-tagged human AKR1C2 expressed in Escherichia coli BL21 (DE3) assessed as inhibition of reduction of non-fluorescent ketone probe to fluorescent alcohol after 1 hr by competitive fluorescence assay
T5 sequence (P52895 whole entry): T2 sequence (Q04828 whole entry) with T38V, R47H, L54V, C87S, V151M, R170H, Q172L

[6] = target: T1, Aldo-keto reductase family 1 member C4; assay: Inhibition of His-tagged human AKR1C4 expressed in Escherichia coli BL21 (DE3) assessed as inhibition of reduction of non-fluorescent ketone probe to fluorescent alcohol after 1 hr by competitive fluorescence assay
[7] = target: T6, Aldo-keto reductase family 1 member C3 (Homo sapiens, UniProt P42330); assay: Inhibition of His-tagged human AKR1C3 expressed in Escherichia coli BL21 (DE3) assessed as inhibition of reduction of non-fluorescent ketone probe to fluorescent alcohol after 1 hr by competitive fluorescence assay
T6 sequence (P42330 whole entry): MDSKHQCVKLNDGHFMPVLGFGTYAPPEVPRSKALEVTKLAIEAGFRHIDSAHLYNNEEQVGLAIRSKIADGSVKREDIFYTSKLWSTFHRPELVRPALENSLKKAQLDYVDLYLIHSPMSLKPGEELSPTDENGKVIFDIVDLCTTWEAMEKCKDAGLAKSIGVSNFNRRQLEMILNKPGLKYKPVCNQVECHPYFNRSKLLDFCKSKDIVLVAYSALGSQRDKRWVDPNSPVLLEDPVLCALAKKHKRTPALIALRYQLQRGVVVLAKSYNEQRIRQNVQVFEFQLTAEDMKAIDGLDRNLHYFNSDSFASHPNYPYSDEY

[8] = target: T2, Aldo-keto reductase family 1 member C1; assay: Inhibition of His-tagged human AKR1C1 expressed in Escherichia coli BL21 (DE3) assessed as inhibition of reduction of non-fluorescent ketone probe to fluorescent alcohol after 1 hr by competitive fluorescence assay
[9] = target: T6, Aldo-keto reductase family 1 member C3; assay: Inhibition of recombinant AKR1C3 (unknown origin) overexpressed in human HCT116 cells assessed as inhibition of aerobic reduction of dinitrobenzamide PR-104A to its hydroxylamine metabolite by LC-MS/MS assay; type: cell-based, HCT-116
[10] = target: T3, Prostaglandin G/H synthase 1; assay: Inhibition of COX1 (unknown origin) at 10 uM
[11] = target: T7, Prostaglandin G/H synthase 2 (Homo sapiens) (UniProt P35354); assay: Inhibition of COX2 (unknown origin) at 10 uM
T7 sequence (whole entry): T4 sequence (P35354 whole entry)

Row | SMILES | pIC50 [5] | pIC50 [6] | pIC50 [7] | pIC50 [8] | further results
1 | Cc1cccc(Nc2ccccc2C(=O)O)c1C [MEFENAMIC ACID] |  |  |  |  | pIC50 [1]: < 4.00; pIC50 [2]: 5.41; pIC50 [3]: 4.60; pIC50 [4]: 5.54
2 | C[C@H]1CCC[C@H](C)N1S(=O)(=O)c1ccc(N2CCCC2=O)cc1 | < 4.52 | < 4.52 | 7.25 | < 4.52 | pIC50 [9]: 7.66
3 | CC(C)C(=O)Nc1ccc(S(=O)(=O)N2CCCCC2C)cc1 (stereo unspecified) |  |  | 4.90 |  | 
4 | CC1CCCCN1S(=O)(=O)c1ccc(N2CCC2=O)cc1 (stereo unspecified) | < 4.52 | < 4.52 | 5.25 | < 4.52 | 
5 | CC1CCCCN1S(=O)(=O)c1ccc(N2CCCCC2=O)cc1 (stereo unspecified) | < 4.52 | < 4.52 | 5.42 | < 4.52 | 
6 | C[C@@H]1CN(S(=O)(=O)c2ccc(N3CCCC3=O)cc2)C[C@H](C)N1 |  |  | 4.67 |  | 
7 | CC1CCCCN1C(=O)c1ccc(N2CCCC2=O)cc1 (stereo unspecified) |  |  | < 4.52 |  | 
8 | O=C1CCCN1c1ccc(S(=O)(=O)N2CCC[C@H](O)C2)cc1 | < 4.52 | < 4.52 | 5.05 | < 4.52 | 
9 | CC1CCCCN1S(=O)(=O)c1ccc(NC(=O)C(C)(C)C)cc1 (stereo unspecified) | < 4.52 | < 4.52 | 5.23 | < 4.52 | 
10 | Cc1cc(S(=O)(=O)N2CCCCC2C)c(C)cc1N1CCCC1=O (stereo unspecified) |  |  | < 4.52 |  | 
11 | CC1CCCCN1S(=O)(=O)c1cccc(N2CCCC2=O)c1 (stereo unspecified) |  |  | < 4.52 |  | 
12 | O=C1CCCN1c1ccc(S(=O)(=O)N2CCCC2)cc1 |  |  | < 4.52 |  | 
13 | O=C1CCCN1c1ccc(S(=O)(=O)N2CCC[C@@H](O)C2)cc1 | < 4.52 | < 4.52 | 5.81 | < 4.52 | 
14 | Cc1cc(S(=O)(=O)N2CCCCC2C)ccc1N1CCCC1=O (stereo unspecified) |  |  | 4.99 |  | 
15 | O=C1CCCN1c1ccc(S(=O)(=O)N2CCOCC2)cc1 |  |  | < 4.52 |  | 
16 | CC1CCCCN1S(=O)(=O)c1ccc(N2CCCS2(=O)=O)cc1 (stereo unspecified) | < 4.52 | < 4.52 | 5.28 | < 4.52 | 
17 | C[C@@H]1CCCCN1S(=O)(=O)c1ccc(N2CCCC2=O)cc1 | < 4.52 | < 4.52 |  | < 4.52 | 
18 | O=C(O)c1ccccc1Nc1cccc(C(F)(F)F)c1 [FLUFENAMIC ACID] |  |  |  |  | pIC50 [3]: 5.52
19 | CC1CCCCN1S(=O)(=O)c1ccc(N2CCCC2=O)cc1 (racemic) | < 4.52 | < 4.52 |  | < 4.52 | inhibition [10]: inactive; inhibition [11]: inactive
20 | O=C1CCCN1c1ccc(S(=O)(=O)N2CCc3ccccc3C2)cc1 |  |  | 7.28 |  | 
21 | CC1CCCCN1Cc1ccc(N2CCCC2=O)cc1 (stereo unspecified) |  |  | < 4.52 |  | 
22 | Cc1ccc(Cl)c(Nc2ccccc2C(=O)O)c1Cl [MECLOFENAMIC ACID] |  |  |  |  | pIC50 [3]: 6.66; pIC50 [4]: 6.15
23 | CC1CCCCN1S(=O)(=O)c1ccccc1N1CCCC1=O (stereo unspecified) |  |  | < 4.52 |  | 
24 | O=C1CCCN1c1ccc(S(=O)(=O)N2CCCCC2)cc1 | < 4.52 | < 4.52 | 6.85 | < 4.52 | inhibition [10]: inactive; inhibition [11]: inactive
25 | CC1CCCN(S(=O)(=O)c2ccc(N3CCCC3=O)cc2)C1 (stereo unspecified) | < 4.52 | < 4.52 | 7.08 | < 4.52 | pIC50 [9]: 7.82
26 | CC1CCCCN1S(=O)(=O)c1ccc(N2CCCC2=O)cn1 (stereo unspecified) | < 4.52 | < 4.52 | 5.56 | < 4.52 | 
27 | CC1CCN(S(=O)(=O)c2ccc(N3CCCC3=O)cc2)CC1 | < 4.52 | < 4.52 | 6.70 | < 4.52 | 
28 | CC1CCCCN1S(=O)(=O)c1ccc(N2C(=O)c3ccccc3C2=O)cc1 (stereo unspecified) |  |  | < 4.52 |  | 
29 | CC1CCCCN1S(=O)(=O)c1ccc(N2C(=O)CCC2=O)cc1 (stereo unspecified) |  |  | < 4.52 |  | 
